Measured values from US20220387398A1, “IMMUNE TO[…] AND POTENTIATORS” (priority 2019, published 2022).

How the values were obtained:
[1] = tested on: ITE degradation in mouse plasma; experiment: Inhibition of ITE degradation in mouse plasma by esterase inhibitors; format: biochemical; settings: for inhibition of ITE degradation (in words, rank): mouse plasma, 1 millimolar benzil, BNPP and tacrine, 0.5 millimolar rivastigmine, pre-incubated 60 minutes
Excerpt: Each inhibitor provided at least some protection from degradation.
FIGS. 3-7 show a mass balance analysis of ITE+ITC in the presence of each inhibitor.

[2] = mouse
Experimental: Levels of ITE and ITC in mouse plasma were determined by liquid chromatography-mass spectrometry (LC-MS). Standard curves were produced by serial dilution of ITE and ITE and used to convert ion counts to absolute concentrations (FIG. 1A).
Each inhibitor was tested independently for its ability to protect ITE from degradation in 0.5 milliliters of mouse plasma (FIG. 2A).

SMILES	inhibition of ITE degradation (in words, rank) [1]	ITE protected from degradation ([1]; 0.5 mL mouse plasma, at 120 minutes, 0.5 millimolar rivastigmine pre-incubated 60 minutes)	ITE lost ([2]; 30 min)	ITE degraded ([2]; 60 min)
O=[N+]([O-])c1ccc(OP(=O)(O)Oc2ccc([N+](=O)[O-])cc2)cc1 [BNPP, bis-para-nitrophenylphosphate]	weaker inhibitors	–	–	–
CCN(C)C(=O)Oc1cccc([C@H](C)N(C)C)c1 [Rivastigmine, rivastigmine]	best inhibitor of ITE degradation	~70%	–	–
O=C(C(=O)c1ccccc1)c1ccccc1 [Benzil, benzil]	weakest single inhibitor	–	–	–
COC(=O)c1csc(C(=O)c2c[nH]c3ccccc23)n1 [ITE, 2-(1 H-Indol-3-ylcarbonyl)-4-thiazolecarboxylic acid methyl ester]	–	–	over 60%	about 90%
Nc1c2c(nc3ccccc13)CCCC2 [Tacrine, tacrine]	weaker inhibitors	–	–	–
